Test results: US4349545A, “Novel erythromycin a derivatives” (Roussel Uclaf, priority 1980, dated 1982)
Values after ≈ are worked out from the molar mass of the structure shown.

Experiments:
[1] = tested on: Streptococcus pyogenes A 561; assay: serial dilution liquid medium MIC, Streptococcus pyogenes A 561; type: cell-based; conditions: A561, 24 hours at 37° C., read-out: minimum inhibiting concentration (MIC)
Procedure: (§1) The method was a serial dilution of liquid medium test wherein a series of tubes were prepared containing the same amount of sterile nutritive medium and increasing amounts of the test product was distributed in each tube. The tubes were then seeded with a bacterial strain and incubated for 24 hours in an oven at 37° C. The degree of inhibition was determined by transillumination to determine the minimum inhibiting concentration (MIC) express in μg/ml and the results are reported in the following Tables.

[2] = tested on: Staphylococcus aureus UC 1128; assay: serial dilution liquid medium MIC, Staphylococcus aureus UC 1128 pen-resistant; type: cell-based; conditions: UC1128; Staphylococcus aureus UC 1128 pen-resistant; 24 hours at 37° C.; read-out: minimum inhibiting concentration (MIC)
Procedure: as §1

[3] = tested on: Staphylococcus aureus exp. n° 54 146; assay: serial dilution liquid medium MIC, Staphylococcus aureus exp. n° 54 146; type: cell-based; conditions: Staphylococcus aureus exp. 54 146; 24 hours at 37° C.; read-out: minimum inhibiting concentration (MIC)
Procedure: as §1

[4] = tested on: Streptococcus faecalis 99 F 74; assay: serial dilution liquid medium MIC, Streptococcus faecalis 99 F 74; type: cell-based; conditions: Enterococcus faecalis, 99F74, 24 hours at 37° C., read-out: minimum inhibiting concentration (MIC)
Procedure: as §1

[5] = tested on: Staphylococcus aureus 1061; assay: serial dilution liquid medium MIC, Staphylococcus aureus 1061 pen-sensibles; type: cell-based; conditions: 24 hours at 37° C., read-out: minimum inhibiting concentration (MIC)
Procedure: as §1

[6] = tested on: Streptococcus faecalis 5435; assay: serial dilution liquid medium MIC, Streptococcus faecalis 5435; type: cell-based; conditions: Enterococcus faecalis, 24 hours at 37° C., read-out: minimum inhibiting concentration (MIC)
Procedure: as §1

[7] = tested on: Streptococcus faecalis 5432; assay: serial dilution liquid medium MIC, Streptococcus faecalis 5432; type: cell-based; conditions: Enterococcus faecalis, 24 hours at 37° C., read-out: minimum inhibiting concentration (MIC)
Procedure: as §1

[8] = tested on: Staphylococcus aureus No. 54,146; assay: In vivo activity in mice experimentally infected with Staphylococcus aureus No. 54,146; conditions: groups of 10 mice
Procedure: The test was effected with the compounds of the invention and erythromycin as a reference on groups of 10 mice weighing about 21 g experimentally infected with Staphylococcus aureus No. 54,146 by intraperitoneal administration of 0.5 ml of a 22 hour culture of the said organism in bouillon with a pH of 7 diluted to 1/6 with physiological water. The test compounds were orally administrated to the mice 1,5 and 24 hours after the infection and the mortality on the 8th day was determined.

| SMILES | MIC [1] | MIC [2] | MIC [3] | MIC [4] | MIC [5] | MIC [6] | MIC [7] | No. of mice living on the 8th day ([8]; dose 0,5mg oral, 1,5 and 24 hours after infection) | No. of mice living on the 8th day ([8]; dose 0,25mg oral, 1,5 and 24 hours after infection) | No. of mice living on the 8th day ([8]; dose 0,75mg oral, 1,5 and 24 hours after infection) |
| --- | --- | --- | --- | --- | --- | --- | --- | --- | --- | --- |
| CCSCCON=C1[C@H](C)C[C@@](C)(O)[C@H](O[C@@H]2O[C@H](C)C[C@H](N(C)C)[C@H]2O)[C@@H](C)[C@H](O[C@H]2C[C@@](C)(OC)[C@@H](O)[C@H](C)O2)[C@@H](C)C(=O)O[C@H](CC)[C@@](C)(O)[C@H](O)[C@H]1C [Example 13, 9-[0-(2-ethylthioethyl)-oxime] of erythromycin] | 0.02 µg/mL (≈ 0.0239 µM) | 0.6 µg/mL (≈ 0.717 µM) | 0.4 µg/mL (≈ 0.478 µM) | 0.1 µg/mL (≈ 0.119 µM) | 0.4 µg/mL (≈ 0.478 µM) | 0.4 µg/mL (≈ 0.478 µM) | 0.01 µg/mL (≈ 0.0119 µM) |  |  |  |
| CC[C@H]1OC(=O)[C@H](C)[C@@H](O[C@H]2C[C@@](C)(OC)[C@@H](O)[C@H](C)O2)[C@H](C)[C@@H](O[C@@H]2O[C@H](C)C[C@H](N(C)C)[C@H]2O)[C@](C)(O)C[C@@H](C)C(=NOC(C)CN(C)C)[C@H](C)[C@@H](O)[C@]1(C)O (stereo partly shown) [Example 36, 9-[O-(2-dimethylamino-1-methyl-ethyl)-oxime] of erythromycin] | ≤ 0.01 µg/mL | 0.5 µg/mL (≈ 0.599 µM) | 0.5 µg/mL (≈ 0.599 µM) | 0.1 µg/mL (≈ 0.12 µM) | 0.2 µg/mL (≈ 0.24 µM) | 0.5 µg/mL (≈ 0.599 µM) | 0.1 µg/mL (≈ 0.12 µM) | 9 mice | 3 mice | 10 mice |
| CC[C@H]1OC(=O)[C@H](C)[C@@H](O[C@H]2C[C@@](C)(OC)[C@@H](O)[C@H](C)O2)[C@H](C)[C@@H](O[C@@H]2O[C@H](C)C[C@H](N(C)C)[C@H]2O)[C@](C)(O)C[C@@H](C)C(=NOCCOCCO)[C@H](C)[C@@H](O)[C@]1(C)O [Example 17, 9-[0-(2-{2-hydroxyethoxy}-ethyl)-oxime] of erythromycin] | 0.05 µg/mL (≈ 0.0597 µM) | 0.6 µg/mL (≈ 0.717 µM) | 0.4 µg/mL (≈ 0.478 µM) | 0.1 µg/mL (≈ 0.119 µM) | 0.4 µg/mL (≈ 0.478 µM) | 0.6 µg/mL (≈ 0.717 µM) | 0.1 µg/mL (≈ 0.119 µM) |  |  |  |
| CCSCC(O)CON=C1[C@H](C)C[C@@](C)(O)[C@H](O[C@@H]2O[C@H](C)C[C@H](N(C)C)[C@H]2O)[C@@H](C)[C@H](O[C@H]2C[C@@](C)(OC)[C@@H](O)[C@H](C)O2)[C@@H](C)C(=O)O[C@H](CC)[C@@](C)(O)[C@H](O)[C@H]1C (stereo partly shown) [Example 16, 9-[0-(3-ethylthio-2-hydroxy-propyl)-oxime] of erythromycin] | 0.05 µg/mL (≈ 0.0577 µM) | 0.6 µg/mL (≈ 0.692 µM) | 0.4 µg/mL (≈ 0.461 µM) | 0.1 µg/mL (≈ 0.115 µM) | 0.4 µg/mL (≈ 0.461 µM) | 1 µg/mL (≈ 1.15 µM) | 0.2 µg/mL (≈ 0.231 µM) |  |  |  |
| CC[C@H]1OC(=O)[C@H](C)[C@@H](O[C@H]2C[C@@](C)(OC)[C@@H](O)[C@H](C)O2)[C@H](C)[C@@H](O[C@@H]2O[C@H](C)C[C@H](N(C)C)[C@H]2O)[C@](C)(O)C[C@@H](C)C(=NOCC(O)CN(C)C)[C@H](C)[C@@H](O)[C@]1(C)O (stereo partly shown) [Example 48, 9-[0-(3-dimethylamino-2-hydroxy-propyl)-oxime] of erythromycin] | 0.05 µg/mL (≈ 0.0588 µM) | 0.6 µg/mL (≈ 0.706 µM) | 0.6 µg/mL (≈ 0.706 µM) | 0.1 µg/mL (≈ 0.118 µM) | 0.4 µg/mL (≈ 0.471 µM) | 1 µg/mL (≈ 1.18 µM) | 0.4 µg/mL (≈ 0.471 µM) |  |  |  |
| CC[C@H]1OC(=O)[C@H](C)[C@@H](O[C@H]2C[C@@](C)(OC)[C@@H](O)[C@H](C)O2)[C@H](C)[C@@H](O[C@@H]2O[C@H](C)C[C@H](N(C)C)[C@H]2O)[C@](C)(O)C[C@@H](C)C(=NOCOCCN(C)C)[C@H](C)[C@@H](O)[C@]1(C)O [Example 22, 9-[0-{(2-dimethylaminoethoxy)-methyl}-oxime] of erythromycin] | ≤ 0.01 µg/mL | 0.6 µg/mL (≈ 0.706 µM) | 0.4 µg/mL (≈ 0.471 µM) | 0.05 µg/mL (≈ 0.0588 µM) | 0.4 µg/mL (≈ 0.471 µM) | 0.2 µg/mL (≈ 0.235 µM) | 0.05 µg/mL (≈ 0.0588 µM) |  |  |  |
| CC[C@H]1OC(=O)[C@H](C)[C@@H](O[C@H]2C[C@@](C)(OC)[C@@H](O)[C@H](C)O2)[C@H](C)[C@@H](O[C@@H]2O[C@H](C)C[C@H](N(C)C)[C@H]2O)[C@](C)(O)C[C@@H](C)C(=NOCOCCNC)[C@H](C)[C@@H](O)[C@]1(C)O [Example 25, 9-[0-{(2-methylamino-ethoxy}-methyl)-oxime] of erythromycin] | ≤ 0.01 µg/mL | 0.5 µg/mL (≈ 0.598 µM) | 0.5 µg/mL (≈ 0.598 µM) | 0.05 µg/mL (≈ 0.0598 µM) | 0.5 µg/mL (≈ 0.598 µM) | 0.2 µg/mL (≈ 0.239 µM) | 0.05 µg/mL (≈ 0.0598 µM) |  |  |  |
